From US20260335398A1, “METHODS FOR TREATING PANCREATIC CANCER WITH A COMBINATION OF DES-METHYL PATEAMINE A AND A CLASS I HDAC INHIBITOR” (Baylor University, priority 2023, published 2026)

How the values were obtained:
Format in all cases: cell-based
H3K9ac = assay: Immunoblot of H3K9ac protein levels (FIGS. 5A-5C, 9C); details: romidepsin 15 nM 6 h; with or without DMPatA 2 nM
Protocol: FIGS. 5A-5C are images of immunoblots of protein levels from whole cell extracts of MIA PaCa-2 cell line following treatment with representative combinations Class 1 HDAC inhibitors and DMPatA, DMPatA alone, and HDAC inhibitor alone. FIG. 5A compares immunoblots of H3K9ac (top panel) and GAPDH (bottom panel) protein levels from whole cell extracts of MIA PaCa-2 cells following treatment with the combination of romidepsin and DMPatA and single drugs. Romidepsin treatment was for 6 hours. FIG. 5B compares immunoblots of H3K9ac protein levels from whole cell extracts of MIA PaCa-2 and KLM cells untreated or following treatment with the combination of entinostat and DMPatA and single drugs. Treatments were for various timepoints ranging from 6 to 24 hours. […]
This apparent hypertranscription observed with the combination, was confirmed by the increase in nascent RNA output above the level of normal cells, following treatment for a total of 18 hours (i.e., 6-hour romidepsin followed by 12-hour washout with or without 2 nM DMPatA), quantified using incorporation of the modified RNA precursor 5-EU. […] Because HDAC inhibitors cause histone hyperacetylation and having observed the increase in gene expression following treatment with the combination, the impact of the combination on histone acetylation was assessed. […]

VGF and HBA2 loci = assay: DRIP-qPCR R-loop accumulation at VGF and HBA2 loci (FIG. 10A); details: MIA PaCa-2, 6+3 hours
Protocol: (§1) FIG. 10A illustrates the fold increase in the percent of input values in DRIP-qPCR for the VGF, HBA2, and SNRPN loci in MIA PaCa-2 cells treated with or without the combination or single agents. Genomic DNA was treated in vitro with or without RNaseH1 before immunoprecipitation using S9.6 antibody. Treatment was for 6+3 hours (i.e., 6-hour romidepsin followed by 3-hour washout with 2 nM DMPatA (combo) or without). Statistical significance was determined by 3-way ANOVA, ***p value<0.001. This experiment confirms the formation of R-loops at the investigated gene loci.
(§2) Romidepsin-induced histone hyperacetylation leads to the accumulation of R-loops that can increase genome instability. Because treatment of cells with the combination increased global transcription and led to persistence of histone hyperacetylation, it was postulated the treatment could similarly enhance the formation of R-loops and contribute to cell death. R-loop accumulation was further confirmed using DRIP-qPCR. […]
(§3) DRIP assay was performed according to the method previously described (Sanz L A, Chédin F. High-resolution, strand-specific R-loop mapping via S9. 6-based DNA-RNA immunoprecipitation and high-throughput sequencing. Nature protocols. 2019; 14(6):1734). […] Quantitative PCR was performed at the R-loop positive loci VGF and HBA2 genes and R-loop negative locus SNRPN gene with the primers listed in Table 1.

SNRPN locus = assay: DRIP-qPCR R-loop accumulation at negative locus SNRPN (FIG. 10A); details: MIA PaCa-2, 6+3 hours
Protocol: as §1, §2, §3

p-RPA = assay: Immunoblot of phospho-RPA2 (FIG. 11A); details: total 24 h (romidepsin 6 h + 18 h with/without 2 nM DMPatA)
Protocol: FIG. 11A compares immunoblots of p-RPA and p-CHK1 protein levels from whole cell extracts following treatment with the combination and romidepsin for a total of 24 h (i.e., romidepsin treatment was for 6 h followed by 18-hour incubation with 2 nM DMPatA (combo) or without (Romi alone)).
Having observed R-loop accumulation following treatment with the combination, it was hypothesized that hypertranscription, persistent hyperacetylation, and R-loop accumulation could increase the incidence of transcription replication conflicts, genome instability, and DNA damage and contribute to cell death. […]
Western blotting was carried out as previously described (Luchenko V L, Litman T, Chakraborty A R, et al. 65. Membranes were probed with primary antibodies: Phospho-Histone H2A.X (Ser139) (1:1000, Millipore Sigma #05-636), GAPDH (1:10000, Abcam #ab8245), c-Myc (1:1000, Abcam #ab32072), β-Actin (1:1000, Cell Signaling Technology (CST), #8457), Phospho-RPA32/RPA2 (Ser33) (1:1000, Cell Signaling Technology #10148), Phospho-Chk1 (Ser345) (1:1000, CST #2341), and secondary antibodies IRDye® 680RD Goat anti-Mouse and IRDye® 800CW Goat anti-Rabbit (both from LI-COR Biosciences). Signal quantification was performed using the Odyssey CLx imaging system (LI-COR Biosciences), capturing various exposures within the linear range with ImageStudio software V3.1 (LI-COR Biosciences).

MIA PaCa-2 and KLM cells = assay: Replication fork dynamics; details: 24 hours
Excerpt: Having observed R-loop accumulation following treatment with the combination, it was hypothesized that hypertranscription, persistent hyperacetylation, and R-loop accumulation could increase the incidence of transcription replication conflicts, genome instability, and DNA damage and contribute to cell death. In response to DNA damage, replication protein A2 (RPA2) is phosphorylated at multiple sites by different protein kinases, including ATM, ATR, and DNA-PK, while the serine threonine-protein kinase, Chk1 (checkpoint kinase 1), is phosphorylated and activated by ATR. […] Drug treatments were for 24 hours (i.e., romidepsin treatment in combination or single agent romidepsin was 6 hours followed by 18-hour incubation with 2 nM DMPatA or with fresh medium respectively).

In the case of C/C=C1\NC(=O)[C@H]2CSSCC/C=C/[C@H](CC(=O)N[C@H](C(C)C)C(=O)N2)OC(=O)[C@H](C(C)C)NC1=O [romidepsin], the H3K9 acetylation (H3K9ac) is reported as “only a small effect”, the “R-loop accumulation (percent of input, DRIP-qPCR)” value (VGF and HBA2 loci) is reported as “significant increase in the percent of input” and the “R-loop accumulation at SNRPN” value (SNRPN locus) is reported as “no accumulation of R-loops”. The phospho-RPA2 (p-RPA) was “Accumulation” and the replication fork speed (MIA PaCa-2 and KLM cells) was “significant reduction”.
